In ChEMBL document CHEMBL1146448, “Cavernosolide, a New Sesterterpene from a Tyrrhenian Sponge” (J Nat Prod, 1997):
In brackets after ≈: the same amount, converted by molar mass.

Experiments:
[1] = Toxicity in Artemia salina; type: organism-based; settings: in vivo
[2] = Toxicity in Gambusia affinis; type: organism-based; settings: in vivo

Q: With `CC(=O)O[C@H]1O[C@@H](C2=CC(=O)O[C@@H]2O)C[C@@H]2[C@@H]1CC[C@H]1[C@@]2(C)CC[C@H]2C(C)(C)CCC[C@]12C` [CAVERNOSOLIDE] as the compound, how does the LC50 [1] read?
A: 0.37 µg/mL (≈ 0.803 µM)

Q: And the LC50 [2]?
A: 0.75 µg/mL (≈ 1.63 µM)
